From patent publication US11840686B2, “Modulation of prekallikrein (PKK) expression” (Ionis Pharmaceuticals, Inc., priority 2013, dated 2023)
Values joined by “and” are separate entries in the source; they are usually repeats but may differ in a detail not shown here. Identical values can stand only once. Strand notation (5' to 3'): a small letter for the sugar, then the base; units joined by * are phosphorothioate-linked, units joined directly phosphodiester-linked; [ ] holds rarer units or linkages, { } end groups; capitals alone tell only the bases. e = 2'-O-(2-methoxyethyl) (MOE); k = constrained ethyl (cEt); [5mC] = 5-methylcytosine; d = 2'-deoxy (DNA)

Assays:
human PKK mRNA [1] = test: Antisense inhibition of human PKK mRNA in HepaRG cells, 1,000 nM, MOE/deoxy/cEt oligonucleotides (Example 3); format: cell-based
Procedure, shortened: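 HepaRG cells at 20,000 per well electroporated with 1,000 nM 16-mer MOE/cEt/deoxy gapmers (phosphorothioate, 5-methylcytosine). After about 24 h, PKK mRNA measured by qRT-PCR with primer probe set RTS3454, normalized to RIBOGREEN total RNA. Reported as percent inhibition versus untreated cells.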

human PKK mRNA [2] = test: Dose-dependent antisense inhibition of human PKK in HepaRG cells, 0.11-3.00 uM (Example 6); format: cell-based; settings: for IC50: 0.11-3.00 μM; for percent inhibition of PKK mRNA, 0.11 μM / percent inhibition of PKK mRNA, 0.33 μM / percent inhibition of PKK mRNA, 1.00 μM / percent inhibition of PKK mRNA, 3.00 μM: electroporation, approx. 16 hours, relative to untreated control cells
Protocol: Cells were plated at a density of 20,000 cells per well and transfected using electroporation with 0.11 μM, 0.33 μM, 1.00 μM, and 3.00 μM concentrations of antisense oligonucleotide. After a treatment period of approximately 16 hours, RNA was isolated from the cells and PKK mRNA levels were measured by quantitative real-time PCR. Human PKK primer probe set RTS3454 was used to measure mRNA levels. PKK mRNA levels were adjusted according to total RNA content, as measured by RIBOGREEN®. The antisense oligonucleotides were tested in a series of experiments that had similar culture conditions.
The half maximal inhibitory concentration (IC50) of each oligonucleotide is also presented.

[3] = Table 19, HepaRG cells, electroporation with 1,000 nM antisense oligonucleotide, approximately 24 hours, PKK mRNA by RT-PCR (RTS3454), relative to untreated control cells
[4] = HepaRG cells, 1,000 nM antisense oligonucleotide, Table 29
[5] = HepaRG cells, electroporation with 1,000 nM antisense oligonucleotide, approximately 24 hours, primer probe set RTS3454, relative to untreated control cells, experiment of Table 23
[6] = Table 21 experiment, HepaRG cells, electroporation with 1,000 nM antisense oligonucleotide, approx. 24 hours, PKK mRNA by RT-PCR (RTS3454), relative to untreated control cells
[7] = Table 20, HepaRG cells, electroporation with 1,000 nM antisense oligonucleotide, approximately 24 hours, PKK mRNA by RT-PCR (RTS3454), relative to untreated control cells
[8] = Table 22 experiment, HepaRG cells, electroporation with 1,000 nM antisense oligonucleotide, approx. 24 hours, PKK mRNA by RT-PCR (RTS3454), relative to untreated control cells
[9] = HepaRG cells, electroporation with 1,000 nM antisense oligonucleotide, approx. 24 hours, PKK mRNA by RT-PCR (RTS3454), relative to untreated control cells, Table 25 experiment
[10] = HepaRG cells, electroporation with 1,000 nM antisense oligonucleotide, approximately 24 hours, primer probe set RTS3454, relative to untreated control cells, experiment of Table 24
[11] = Table 27, HepaRG cells, 1,000 nM antisense oligonucleotide, human PKK mRNA
[12] = Table 28, HepaRG cells, 1,000 nM antisense oligonucleotide, human PKK mRNA
[13] = Table 30, human PKK mRNA, HepaRG cells, 1,000 nM antisense oligonucleotide

Row | Substance | IC50 (human PKK mRNA [2]) | percent inhibition of PKK mRNA, 0.11 μM (human PKK mRNA [2]) | percent inhibition of PKK mRNA, 0.33 μM (human PKK mRNA [2]) | percent inhibition of PKK mRNA, 1.00 μM (human PKK mRNA [2]) | percent inhibition of PKK mRNA, 3.00 μM (human PKK mRNA [2]) | other results
1 | 548125 (antisense e[5mC]*eT*kA*dG*dA*d[5mC]*dT*d[5mC]*dT*dG*dG*dA*d[5mC]*kT*kG*e[5mC]) [compound 548125] | 300 nM | 33% | 50% | 81% | 73% | % inhibition (human PKK mRNA [1]; [3]): 89%
2 | 548557 (antisense eG*eT*kT*dA*d[5mC]*dT*d[5mC]*dT*dG*dT*dG*dA*dT*k[5mC]*k[5mC]*eA) [compound 548557] | 400 nM | 5% | 47% | 82% | 95% | % inhibition (human PKK mRNA [1]; [4]): 81%
3 | 547942 (eG*eG*kT*dG*dT*dG*d[5mC]*d[5mC]*dA*d[5mC]*dT*dT*dT*k[5mC]*kA*eG; antisense) [compound 547942] | 300 nM | 25% | 51% | 91% |  | % inhibition (human PKK mRNA [1]; [5]): 85%
4 | 547824 (e[5mC]*eG*kA*dT*dG*dT*dA*d[5mC]*dT*dT*dT*dT*dG*kG*k[5mC]*eA; antisense) [compound 547824] |  | 45% | 73% | 78% |  | % inhibition (human PKK mRNA [1]; [6]): 82%
5 | 547877 (antisense eA*eA*k[5mC]*dA*d[5mC]*dT*dG*d[5mC]*dT*dA*dA*d[5mC]*d[5mC]*kT*kT*eA) [compound 547877] | 200 nM | 29% | 66% | 83% |  | % inhibition (human PKK mRNA [1]; [7]): 81%; % inhibition (human PKK mRNA [1]; [8]): 93%
6 | 547808 (e[5mC]*eA*kT*d[5mC]*dT*dG*dG*d[5mC]*dA*dG*dT*dA*dT*kT*kG*eG; antisense) [compound 547808] | 1100 nM | 19% | 22% | 48% | 71% | % inhibition (human PKK mRNA [1]; [6]): 56%
7 | 548174 (eT*e[5mC]*kT*d[5mC]*dA*dG*dT*dT*dG*d[5mC]*dG*dA*d[5mC]*k[5mC]*kT*e[5mC]; antisense) [compound 548174] | 2000 nM | 20% | 18% | 29% | 62% | % inhibition (human PKK mRNA [1]; [9]): 68%
8 | 548069 (e[5mC]*e[5mC]*kA*dA*d[5mC]*dA*dG*dT*dT*dG*dG*dT*dA*kT*kA*eA; antisense) [compound 548069] | 1900 nM | 6% | 0% | 27% | 66% | % inhibition (human PKK mRNA [1]; [10]): 57%
9 | 548109 (antisense eG*e[5mC]*kA*dT*d[5mC]*dT*dG*dA*dG*d[5mC]*dT*dT*dT*kT*k[5mC]*e[5mC]) [compound 548109] |  | 50% | 92% | 79% | 85% | % inhibition (human PKK mRNA [1]; [3]): 77%
10 | 547747 (eT*e[5mC]*kA*d[5mC]*dT*dG*dT*dA*d[5mC]*dT*dA*dG*dT*kT*kT*e[5mC]) [compound 547747] | 400 nM and 300 nM and 500 nM |  |  | 81% and 90% and 72% and 85% | 89% and 92% and 90% and 96% | % inhibition (human PKK mRNA [1]; [4]): 64%; % inhibition (human PKK mRNA [1]; [9]): 66%; % inhibition (human PKK mRNA [1]; HepaRG cells, electroporation with 1,000 nM antisense oligonucleotide, approx. 24 hours, PKK mRNA by RT-PCR (RTS3454), relative to untreated control cells, Table 26 experiment): 80%; % inhibition (human PKK mRNA [1]; [5]): 83%; % inhibition (human PKK mRNA [1]; [10]): 80%; % inhibition (human PKK mRNA [1]; PKK mRNA, HepaRG cells, 1,000 nM antisense oligonucleotide, Table 31): 88%; % inhibition (human PKK mRNA [1]; [3]): 95%; % inhibition (human PKK mRNA [1]; [7]): 84%; % inhibition (human PKK mRNA [1]; [6]): 88%; % inhibition (human PKK mRNA [1]; [8]): 91%; % inhibition (human PKK mRNA [1]; [11]): 67%; % inhibition (human PKK mRNA [1]; [12]): 64%; % inhibition (human PKK mRNA [1]; [13]): 64%
11 | 548061 (eG*e[5mC]*kT*dT*dG*dT*dG*dT*d[5mC]*dA*d[5mC]*d[5mC]*dT*kT*kT*eG; antisense) [compound 548061] | 400 nM | 26% | 61% | 59% |  | % inhibition (human PKK mRNA [1]; [10]): 86%
12 | 548343 (antisense eT*eA*kG*dT*dG*dA*dT*dA*dA*dG*dA*dG*d[5mC]*kT*kG*eG) [compound 548343] |  | 61% | 67% | 88% | 92% | % inhibition (human PKK mRNA [1]; [11]): 78%
13 | 548425 (antisense eA*eA*k[5mC]*dA*dG*dT*dA*dT*d[5mC]*dA*d[5mC]*dT*dG*kT*k[5mC]*e[5mC]) [compound 548425] | 200 nM | 41% | 57% | 68% | 80% | % inhibition (human PKK mRNA [1]; [13]): 90%
14 | 547862 (antisense eG*eA*k[5mC]*dT*d[5mC]*d[5mC]*dT*d[5mC]*dT*d[5mC]*dA*dT*dA*kT*k[5mC]*eA) [compound 547862] | 300 nM | 26% | 71% | 69% |  | % inhibition (human PKK mRNA [1]; [7]): 22%; % inhibition (human PKK mRNA [1]; [8]): 88%
15 | 548479 (eA*eG*kG*d[5mC]*d[5mC]*dA*dT*dT*dT*dG*dA*dT*d[5mC]*k[5mC]*kG*eA; antisense) [compound 548479] | 400 nM | 2% | 52% | 82% | 97% | % inhibition (human PKK mRNA [1]; [12]): 68%
16 | 547947 (eG*eG*kA*dA*d[5mC]*dT*dT*dG*dG*dT*dG*dT*dG*k[5mC]*k[5mC]*eA; antisense) [compound 547947] | 300 nM | 24% | 58% | 81% | 93% | % inhibition (human PKK mRNA [1]; [5]): 80%
17 | 548005 (eA*eG*kA*dG*dT*dA*dA*d[5mC]*d[5mC]*dA*dG*dA*dG*k[5mC]*kT*e[5mC]; antisense) [compound 548005] | 400 nM | 53% | 49% | 71% | 95% | % inhibition (human PKK mRNA [1]; [10]): 77%
